These results are taken from patent publication US9394300B2, “Quinolone derivatives” (Cadila Healthcare Limited, priority 2012, dated 2016).

In assay [1] the test system is C57 Mice. Kind of assay: Estimating hemoglobin levels in mice. The settings on record: oral once daily for 7 consecutive days at 20 mg/kg, whole blood on 8th day. It is filed as in vivo. How it is done:
(2) Protocol for Estimating Hemoglobin Levels in Mice
C57 mice were administered compounds of the present invention at 10 ml/kg by oral route daily once in the morning for 7 consecutive days at 20 mg/kg. On 8th day animals were bled by retro-orbital puncture under light ether anesthesia in microfuge tubes containing 2% EDTA (10 μl/100 μl of blood) for whole blood. Hemoglobin, Reticulocyte count and RBC count were measured using standard procedures.

Assay [2] relates to C57 Mice. Kind of assay: Estimating circulating EPO release in mice (plasma EPO by mouse EPO ELISA). It is filed as in vivo. The settings on record: plasma six hours after administration, EPO in control = 62 ng/mL. How it is done:
(1) Protocol for Estimating Circulating EPO Release in Mice
C57 Mice were administered various doses (10 mg/kg, 30 mg/kg, 50 mg/kg, 100 mg/kg) of compounds of the present invention by oral gavage at 10 ml/kg. Six hours after compound administration, mice were bled by retro-orbital puncture, under light ether anesthesia in microfuge tubes containing 2% EDTA (10 μl/100 μl of blood). Plasma was separated and analyzed for EPO content by mouse EPO ELISA.

For `O=C(O)CNC(=O)c1c(O)c2ccccc2n(OCC2CC2)c1=O` [Example 2, 2-(1-(cyclopropylmethoxy)-4-hydroxy-2-oxo-1,2-dihydroquinoline-3-carboxamido)acetic acid], the “Hemoglobin (g/dL) 20 mg/kg compound” value in assay [1] is given as 16.3 g/dL. Also, in assay [2], the “EPO (ng/mL) oral gavage 10 mg/kg” value is 396 ng/mL and the “EPO (ng/mL) oral gavage 30 mg/kg” value is given as 4822 ng/mL.

Take `C=CCOn1c(=O)c(C(=O)NCC(=O)O)c(O)c2ccccc21` [Example 15, 2-(1-(allyloxy)-4-hydroxy-2-oxo-1,2-dihydroquinoline-3-carboxamido)acetic acid]: in assay [1], the “Hemoglobin (g/dL) 20 mg/kg compound” value is given as 13.2 g/dL. In assay [2], the “EPO (ng/mL) oral gavage 10 mg/kg” value is 315 ng/mL and the “EPO (ng/mL) oral gavage 50 mg/kg” value is on record as 4269 ng/mL.

For `CCCOn1c(=O)c(C(=O)NCC(=O)O)c(O)c2ccccc21` [Example 21, 2-(4-hydroxy-2-oxo-1-propoxy-1,2-dihydroquinoline-3-carboxamido) acetic acid], in assay [1], the “Hemoglobin (g/dL) 20 mg/kg compound” value is recorded as 15.8 g/dL. In addition, in assay [2], the “EPO (ng/mL) oral gavage 10 mg/kg” value is on record as 190 ng/mL and the “EPO (ng/mL) oral gavage 30 mg/kg” value is 6234 ng/mL.

For `COc1ccc(COn2c(=O)c(C(=O)NCC(=O)O)c(O)c3ccccc32)cc1` [Example 67, 2-(4-hydroxy-1-((4-methoxybenzyl)oxy)-2-oxo-1,2-dihydroquinoline-3-carboxamido)acetic acid], the “EPO (ng/mL) oral gavage 50 mg/kg” value in assay [2] is 477 ng/mL.
